The results in this text go back to patent US11071738B2, “Therapeutic agent for fatty liver diseases and therapeutic agent for adiposity” (Hiroshima University, priority 2017, dated 2021).

SMILES strings stand for the structures.

In the first data set the target is T1, Pin1 (Homo sapiens, UniProt Q13526).
T1 construct: endogenous in cells; host or cells: 293T cells
T1 sequence (Q13526 whole entry): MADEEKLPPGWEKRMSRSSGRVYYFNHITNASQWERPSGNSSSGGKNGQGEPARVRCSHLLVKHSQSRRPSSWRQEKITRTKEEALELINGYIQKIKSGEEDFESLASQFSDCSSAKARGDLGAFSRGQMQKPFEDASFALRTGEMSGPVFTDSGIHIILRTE
Kind of data set: Cell-based Pin1 inhibition assay with AMPK phosphorylation level as index. Also noted: key to Pin1 inhibition activity: +++: a higher level of AMPK phosphorylation is promoted, as compared with C1; ++: a similar level of AMPK phosphorylation is promoted, as compared with C1; +: a lower level of AMPK phosphorylation is promoted, as compared with C1; −: no or almost no promotion is found in AMPK phosphorylation. To be noted: 293T cells, compound at 100 μM, 10 mM 2-DG, pAMPK blot compared with C1. The method, then: To evaluate the inhibitory activity of each synthesized compound against the function of Pin1, a cell-based assay was performed according to the method previously developed by the inventors (Yusuke Nakatsu et al., Journal of Biological Chemistry, 2015, Vol. 290, No. 40, pp. 24255-24266), in which the phosphorylation level of AMPK (AMP-activated protein kinase), a protein whose phosphorylation is inhibited by Pin1, was examined as an index.
Briefly, 293T cells were plated on a collagen-coated 24-well plate. Forty-eight hours later, each compound synthesized in the preceding example (at 100 μM) was added to the plate, and the plate was left to stand in an incubator for 30 minutes. Subsequently, 10 mM 2-DG was added to the plate, and one hour later, each sample was collected with a buffer containing mercaptoethanol and SDS.
SDS-PAGE and blotting were performed, and blocking was then performed with 3% BSA for 1 hour, according to conventional protocols. Subsequently, a pAMPK antibody (Cell Signaling; diluted 1:2000 in Can Get Signal Solution 1, Toyobo) as a primary antibody, and an HRP-linked anti rabbit IgG (GE Healthcare; diluted 1:4000 in Can Get Signal Solution 2, Toyobo) as a secondary antibody were allowed to react at ambient temperature for 1 hour prior to detection.
The inhibitory activity against the function of Pin1 was evaluated by comparing the inhibition levels between each compound and a known Pin1 inhibitor, C1, as indicated below: […]
On to `O=C(N[C@H](Cc1ccc2ccccc2c1)C(=O)OCc1ccccc1)C1c2ccccc2-c2ccccc21` [Compound H-105], for which the Pin1 inhibition activity entry is on record as “− (Hydrolysis causes conversion to H-109, which is active)”.

`O=C(COc1ccccc1)O[C@H](Cc1ccc2ccccc2c1)C(=O)O` [Compound H-176]: the Pin1 inhibition activity entry is given as “++”.

Consider `O=C(COc1cccc2ccccc12)O[C@H](Cc1ccc2ccccc2c1)C(=O)O` [Compound H-179], for which the Pin1 inhibition activity result is “+++”.

For `O=C(Nc1ccccc1Oc1ccccc1)N[C@H](Cc1ccc2ccccc2c1)C(=O)O` [Compound H-334], the Pin1 inhibition activity entry is “+++”.

Regarding `O=C(O[C@H](Cc1ccc2ccccc2c1)C(=O)O)c1ccc(Cl)c(Cl)c1` [Compound H-269], the Pin1 inhibition activity entry is on record as “+”.

Take `COc1ccc(C(=O)O[C@H](Cc2ccc3ccccc3c2)C(=O)O)cc1OC` [Compound H-266]: the Pin1 inhibition activity entry is given as “+”.

With `O=C(O[C@H](Cc1ccc2ccccc2c1)C(=O)O)c1ccc2ccccc2c1` [Compound H-30], the Pin1 inhibition activity entry is on record as “++”.

Turning to `O=C(COc1ccc2ccccc2c1)O[C@H](Cc1ccc2ccccc2c1)C(=O)O` [Compound H-177], the Pin1 inhibition activity result was “++”.

Regarding `O=C(O)[C@@H](Cc1ccc2ccccc2c1)OC(=O)N1c2ccccc2Oc2ccccc21` [Compound H-157], the Pin1 inhibition activity entry is recorded as “++”.

Consider `CN(C)c1ccc(C(=O)O[C@H](Cc2ccc3ccccc3c2)C(=O)O)cc1` [Compound H-212], for which the Pin1 inhibition activity result is “+”.

As to `O=C(O)[C@@H](Cc1ccc2ccccc2c1)NC(=O)C1(O)c2ccccc2-c2ccccc21` [Compound H-101], the Pin1 inhibition activity entry is “++”.

Regarding `O=C(O)[C@@H](Cc1ccc2ccccc2c1)NC(=O)N1c2ccccc2Oc2ccccc21` [Compound H-162], the Pin1 inhibition activity result was “++”.

Regarding `O=C(O)[C@@H](Cc1ccc2ccccc2c1)NC(=O)N1c2ccccc2C=Cc2ccccc21` [Compound H-164], the Pin1 inhibition activity entry is reported as “+”.

Turning to `O=C(Nc1ccc(C(=O)c2ccccc2)cc1)N[C@H](Cc1ccc2ccccc2c1)C(=O)O` [Compound H-341], the Pin1 inhibition activity entry is recorded as “++”.

For the molecule `Cc1cc(C)cc(C(=O)O[C@H](Cc2ccc3ccccc3c2)C(=O)O)c1` [Compound H-210], the Pin1 inhibition activity result was “+”.

`O=C(Cc1ccc2ccccc2c1)N[C@H](Cc1ccc2ccccc2c1)C(=O)O` [Compound H-158]: the Pin1 inhibition activity entry is “++”.

As to `COc1ccc(-c2cc(C(=O)O[C@H](Cc3ccc4ccccc4c3)C(=O)O)c(C)o2)cc1` [Compound H-32], the Pin1 inhibition activity entry is on record as “+”.

For the molecule `COC(=O)[C@@H](Cc1ccc2ccccc2c1)NC(=O)CN1c2ccccc2C2C=CC=CC21` (stereo partly shown) [Compound H-521], the Pin1 inhibition activity result is reported as “+”.

Take `O=C(O[C@H](Cc1ccc2ccccc2c1)C(=O)O)c1ccc(-c2ccccc2)cc1` [Compound H-33]: the Pin1 inhibition activity result is “+”.

In the case of `O=C(O[C@H](Cc1ccc2ccccc2c1)C(=O)O)c1cccc(Oc2ccccc2)c1` [Compound H-130], the Pin1 inhibition activity result is “++”.

As for `O=C(O[C@@H](Cc1ccc2ccccc2c1)C(=O)O)C1c2ccccc2-c2ccccc21` [Compound H-141], the Pin1 inhibition activity result is reported as “+++”.

In the case of `O=C(CC1c2ccccc2-c2ccccc21)O[C@H](Cc1ccc2ccccc2c1)C(=O)O` [Compound H-106], the Pin1 inhibition activity result is given as “++”.

Take `Cc1ccc(C(=O)O[C@H](Cc2ccc3ccccc3c2)C(=O)O)cc1C` [Compound H-265]: the Pin1 inhibition activity entry is “+”.

For the molecule `O=C(O)[C@@H](Cc1ccc2ccccc2c1)NC(=O)N(c1ccccc1)c1ccccc1` [Compound H-161], the Pin1 inhibition activity entry is listed as “++”.

Regarding `O=C(O)[C@@H](Cc1ccc2ccccc2c1)OC(=O)n1c2ccccc2c2ccccc21` [Compound H-175], the Pin1 inhibition activity result is “+++”.

Take `O=C(O[C@H](Cc1ccc2ccccc2c1)C(=O)O)c1ccc(C(O)c2ccccc2)cc1` (stereo partly shown) [Compound H-23]: the Pin1 inhibition activity result is listed as “++”.

Turning to `O=C(O[C@H](Cc1ccc2ccccc2c1)C(=O)O)c1ccc(F)c(F)c1` [Compound H-270], the Pin1 inhibition activity entry is “+”.

`O=C(O[C@H](Cc1ccc2ccccc2c1)C(=O)O)C1c2ccccc2-c2ccccc21` [Compound H-31]: the Pin1 inhibition activity entry is on record as “+++”.

For the molecule `O=C(Cn1c2ccccc2c2ccccc21)N[C@H](Cc1ccc2ccccc2c1)C(=O)O` [Compound H-536], the Pin1 inhibition activity entry is reported as “+”.

For the molecule `O=C(O[C@H](Cc1ccc2ccccc2c1)C(=O)O)c1ccc(Oc2ccccc2)cc1` [Compound H-123], the Pin1 inhibition activity result is “++”.

Take `O=C(N[C@H](Cc1ccc2ccccc2c1)C(=O)O)C1c2ccccc2-c2ccccc21` [Compound H-109]: the Pin1 inhibition activity result is “+++”.

As to `O=C(O[C@H](Cc1ccc2ccccc2c1)C(=O)O)C(c1ccccc1)c1ccccc1` [Compound H-134], the Pin1 inhibition activity entry is reported as “++”.

Consider `O=C(Cc1ccc2ccccc2c1)O[C@H](Cc1ccc2ccccc2c1)C(=O)O` [Compound H-149], for which the Pin1 inhibition activity entry is given as “+”.

For `O=C(O)[C@@H](Cc1ccc2ccccc2c1)NC(=O)N1c2ccccc2CCc2ccccc21` [Compound H-178], the Pin1 inhibition activity entry is reported as “+++”.

Take `O=C(Cc1c[nH]c2ccccc12)O[C@H](Cc1ccc2ccccc2c1)C(=O)O` [Compound H-180]: the Pin1 inhibition activity entry is “++”.

On to `COC(=O)c1ccc2cc(C(=O)N[C@H](Cc3ccc4ccccc4c3)C(=O)O)ccc2c1` [Compound H-62], for which the Pin1 inhibition activity result is given as “+”.

As for `O=C(CC1c2ccccc2-c2ccccc21)N[C@H](Cc1ccc2ccccc2c1)C(=O)O` [Compound H-103], the Pin1 inhibition activity result is on record as “+++”.

Turning to `O=C(Cc1cccc2ccccc12)O[C@H](Cc1ccc2ccccc2c1)C(=O)O` [Compound H-151], the Pin1 inhibition activity result is recorded as “++”.

With `CC(C)(C)OC(=O)N[C@@H](Cc1ccccc1)C(=O)O[C@H](Cc1ccc2ccccc2c1)C(=O)O` [Compound H-248], the Pin1 inhibition activity entry is reported as “+”.

With `COc1cc(OC)cc(C(=O)O[C@H](Cc2ccc3ccccc3c2)C(=O)O)c1` [Compound H-198], the Pin1 inhibition activity entry is on record as “+”.

With `O=C(O[C@H](Cc1ccc2ccccc2c1)C(=O)O)c1ccccc1Oc1ccccc1` [Compound H-132], the Pin1 inhibition activity result is on record as “+”.

Consider `O=C(O[C@H](Cc1ccc2ccccc2c1)C(=O)O)c1cc(Cl)cc(Cl)c1` [Compound H-200], for which the Pin1 inhibition activity result was “+”.

With `O=C(O[C@H](Cc1ccc2ccccc2c1)C(=O)OCc1ccccc1)c1ccc2ccccc2c1` [Compound H-21], the Pin1 inhibition activity entry is reported as “− (Hydrolysis causes conversion to H-30, which is active)”.

The data set is the same for the next values; noted with them: cell-based assay, 293T cells, compound at 100 μM.
On to `O=C(N[C@H](Cc1ccc2ccccc2c1)C(=O)OCc1ccccc1)C1c2ccccc2-c2ccccc21` [Compound H-105], for which the “Pin1 inhibition activity (in words)” value is on record as “no Pin1 inhibition activity”.

The next data set deals with NASH model mice (HFDT).
Assay: not given
The conditions noted are these: HFDT NASH mice, 8 weeks; i.p. 2.5 mg/kg/day or oral 5.0 mg/kg/day three times a week. Here is the method: Animal experiments were performed using non-alcoholic steatohepatitis (NASH) model mice to test the compounds synthesized in Examples for the therapeutic effect on NASH.
NASH model mice (hereinafter referred to as “NASH mice”) were produced by feeding a high-fat diet containing trans fatty acids (HFDT) to individual male laboratory mice (C57BL/6J) for 8 weeks. […] In addition, a normal diet was given to individual male laboratory mice (C57BL/6J) for 8 weeks to prepare control mice.
As for `COC(=O)[C@@H](Cc1ccc2ccccc2c1)NC(=O)n1c2ccccc2c2ccccc21` [Compound H-144], the “blood ALT (GPT) value, index of liver inflammation” value is given as “decreased”; the “fasting blood glucose level” value is on record as “no significant abnormality”; the “increase in liver weight” value is recorded as “significantly reduced”.

The same data set, now with this note: HFDT NASH mice, 8 weeks; oral 5.0 mg/kg/day three times a week.
Regarding `O=C1C=CC(=O)c2c(O)cccc21` [Juglone, reference compound], the “fasting blood glucose level” value was “abnormal increase” and the “increase in liver weight” value is “significantly reduced”.

Still in this data set, the particulars now being: HFDT NASH mice; i.p. 2.5 mg/kg/day three times a week.
For `O=C1C=CC(=O)c2c(O)cccc21` [Juglone, reference compound], the death of mice result is given as “all dead within 8 weeks”.

Still in this data set, the particulars now being: HFDT NASH mice; oral 5.0 mg/kg/day three times a week.
`O=C1C=CC(=O)c2c(O)cccc21` [Juglone, reference compound]: the death of mice result is “not dead”.

Another data set relates to NASH mice (MCDD). Kind of data set: NASH treatment study in mice fed a methionine-choline-deficient diet (MCDD). The class given is in vivo, mice (C57BL/6J). The conditions noted are these: NASH mice given MCDD, 8 weeks; i.p. 2.5 mg/kg/day three times a week. The method, then:
Next, an animal experiment was performed on NASH mice that were produced by feeding a methionine-choline-deficient diet (MCDD).
For `O=C(O[C@H](Cc1ccc2ccccc2c1)C(=O)O)C1c2ccccc2-c2ccccc21` [Compound H-31], the “hepatic fibrosis (Azan staining)” value is on record as “significantly inhibited”.

Still in this data set, the particulars now being: NASH mice given MCDD; i.p. 2.5 mg/kg/day three times a week.
Consider `O=C(O[C@H](Cc1ccc2ccccc2c1)C(=O)O)C1c2ccccc2-c2ccccc21` [Compound H-31], for which the “Collagen 1a1 mRNA expression level” value is listed as “reduced”, the “Collagen 1a2 mRNA expression level” value is listed as “reduced” and the “SMA mRNA expression level” value was “reduced”.
